Measurements taken from PubChem BioAssay AID330 (DTP/NCI, 2004).
Several values for one entry are separate records, joined by “and”; a condition that tells them apart may be missing. Equal entries are not always repeated. Inconclusive results and toxic doses are left out. The calls were made as follows: active = survival T/C of 150% or more; inactive = T/C below 125% in these data.

Tested on: P388 leukemia ip, CD2F1 mice, survival T/C
Experiment: NCI In Vivo Anticancer Drug Screen. Data for tumor model P388 Leukemia (intraperitoneal) in CD2F1 (CDF1) mice
Settings: endpoint: median survival time, higher = longer survival
Method in brief: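 Mice carrying the transplanted tumor received test compound or vehicle. Survival was recorded in each group, and the value is the treated-group measurement divided by that of the vehicle-treated control group.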

[1] = dose: 12.5 mg/kg/injection, schedule: Q01DX009 (ip), vehicle: Klucel (hydroxypropylcellulose) (HPC)
[2] = dose: 25.0 mg/kg/injection, schedule: Q01DX009 (ip), vehicle: Klucel (hydroxypropylcellulose) (HPC)
[3] = dose: 60.0 mg/kg/injection, schedule: Q01DX005 (ip), vehicle: saline with Tween-80
[4] = dose: 120.0 mg/kg/injection, schedule: Q01DX005 (ip), vehicle: saline with Tween-80
[5] = dose: 100.0 mg/kg/injection, schedule: Q01DX009 (ip), vehicle: Klucel (hydroxypropylcellulose) (HPC)
[6] = dose: 200.0 mg/kg/injection, schedule: Q01DX009 (ip), vehicle: Klucel (hydroxypropylcellulose) (HPC)
[7] = dose: 50.0 mg/kg/injection, schedule: Q01DX009 (ip), vehicle: Klucel (hydroxypropylcellulose) (HPC)
[8] = dose: 50.0 mg/kg/injection, schedule: Q01DX005 (ip), vehicle: saline with Tween-80
[9] = dose: 100.0 mg/kg/injection, schedule: Q01DX005 (ip), vehicle: saline with Tween-80
[10] = dose: 200.0 mg/kg/injection, schedule: Q01DX005 (ip), vehicle: saline with Tween-80
[11] = dose: 12.5 mg/kg/injection, schedule: Q01DX009 (ip), vehicle: saline with Tween-80
[12] = dose: 50.0 mg/kg/injection, schedule: Q01DX009 (ip), vehicle: saline with Tween-80
[13] = dose: 100.0 mg/kg/injection, schedule: Q01DX001 (ip), vehicle: saline with Tween-80
[14] = dose: 100.0 mg/kg/injection, schedule: Q04DX003 (ip), vehicle: saline
[15] = dose: 200.0 mg/kg/injection, schedule: Q04DX003 (ip), vehicle: saline
[16] = dose: 400.0 mg/kg/injection, schedule: Q04DX003 (ip), vehicle: saline

Measured: T/C

NC(C(=O)O)c1cc(=O)[nH]o1 (stereo not given)
inactive: dose: 2.5 mg/kg/injection, schedule: Q01DX009 (ip), vehicle: Klucel (hydroxypropylcellulose) (HPC) 98 % of control | dose: 5.0 mg/kg/injection, schedule: Q01DX009 (ip), vehicle: Klucel (hydroxypropylcellulose) (HPC) 93 % of control | dose: 10.0 mg/kg/injection, schedule: Q01DX009 (ip), vehicle: Klucel (hydroxypropylcellulose) (HPC) 101 % of control

CN(C)CC/C=C1/c2ccccc2C=Nc2ccc(Cl)cc21
inactive: dose: 6.25 mg/kg/injection, schedule: Q01DX009 (ip), vehicle: Klucel (hydroxypropylcellulose) (HPC) 116 % of control | [1] 108 % of control | [2] 99 % of control

S=c1ncnc2c1ccc1[nH][nH]cc12
inactive: dose: 100.0 mg/kg/injection, schedule: Q04DX002 (ip), vehicle: saline with Tween-80 88 % of control | dose: 200.0 mg/kg/injection, schedule: Q04DX002 (ip), vehicle: saline with Tween-80 92 % of control | dose: 400.0 mg/kg/injection, schedule: Q04DX002 (ip), vehicle: saline with Tween-80 107 % of control

O=C(CBr)CC(O)(C(F)(F)F)C(F)(F)F
inactive: dose: 3.0 mg/kg/injection, schedule: Q04DX003 (ip), vehicle: saline 100 % of control | dose: 6.0 mg/kg/injection, schedule: Q04DX003 (ip), vehicle: saline 100 % of control | dose: 12.0 mg/kg/injection, schedule: Q04DX003 (ip), vehicle: saline 91 % of control

COc1ccc(C(c2c(O)c3ccccc3oc2=O)c2c(O)c3ccccc3oc2=O)c(OC)c1
inactive: [3] 106 % of control | [4] 98 % of control | dose: 240.0 mg/kg/injection, schedule: Q01DX005 (ip), vehicle: saline with Tween-80 94 % of control

CC(C)C(=O)N1CCCCCCN1C(=O)C(C)C
inactive: [5] 107 % of control | [6] 111 % of control

CC(C)O[Si](OC(C)C)(OC(C)C)OC(C)C
inactive: [7] 101 % of control | [5] 105 % of control | [6] 105 % of control

Cc1coc2c1CC1(C)C(CCC(OC(=O)CC(C)C)C1C)C2=O (stereo not given) (tested in a mixture with another compound)
inactive: [5] 105 % of control | [6] 93 % of control

c1cc2cc3c(cc2cc1CC1NCCc2cc4c(cc21)OCO4)OCO3 (stereo not given)
inactive: [1] 100 % of control | [2] 91 % of control | [7] 107 % of control | [5] 91 % of control

CC(=O)NC(Cc1cc(I)c(O)c(I)c1)C(=O)O (stereo not given)
inactive: [2] 94 % of control | [7] 88 % of control | dose: 50.0 mg/kg/injection, schedule: Q01DX009 (ip), vehicle: saline 100 % of control | [5] 94 % of control | dose: 100.0 mg/kg/injection, schedule: Q01DX009 (ip), vehicle: saline 107 % of control | [6] 94 % of control | dose: 200.0 mg/kg/injection, schedule: Q01DX009 (ip), vehicle: saline 105 % of control

CC(=O)NC(C=O)C(OC(C)C(=O)NC(C)C(=O)NC(CCC(N)=O)C(=O)O)C(OC1OC(CO)C(O)C(O)C1NC(C)=O)C(O)CO (stereo not given)
inactive: dose: 6.25 mg/kg/injection, schedule: Q01DX005 (ip), vehicle: saline 111 % of control | dose: 12.5 mg/kg/injection, schedule: Q01DX005 (ip), vehicle: saline 112 % of control | dose: 25.0 mg/kg/injection, schedule: Q01DX005 (ip), vehicle: saline 112 % of control | dose: 50.0 mg/kg/injection, schedule: Q01DX005 (ip), vehicle: saline 116 % of control

O=c1[nH]c(-c2cccnc2)nnc1-c1ccc(Cl)cc1
inactive: [8] 102 % of control | [9] 103 % of control | [10] 96 % of control

O=P(c1ccccc1)(c1ccccc1)c1ccccc1.O=P(c1ccccc1)(c1ccccc1)c1ccccc1.O=P(c1ccccc1)(c1ccccc1)c1ccccc1.O=P(c1ccccc1)(c1ccccc1)c1ccccc1.[Ni+2].[O-][Cl+3]([O-])([O-])O
inactive: [11] 96 % of control | dose: 25.0 mg/kg/injection, schedule: Q01DX009 (ip), vehicle: saline with Tween-80 101 % of control | [12] 90 % of control and 95 % of control

NC(=O)Nc1cc2oc(=O)[nH]c2cc1Cl
inactive: [8] 94 % of control | [9] 95 % of control | [10] 90 % of control

O=C(O)c1ccc(NC(=S)NC(=O)c2cccc(Br)c2)cc1
inactive: [3] 91 % of control | [4] 86 % of control

COc1ccc(C2(C)C=C(C)C=C(C)C2=O)cc1 (stereo not given)
inactive: [12] 100 % of control | dose: 100.0 mg/kg/injection, schedule: Q01DX009 (ip), vehicle: saline with Tween-80 106 % of control | dose: 200.0 mg/kg/injection, schedule: Q01DX009 (ip), vehicle: saline with Tween-80 100 % of control

CC(C)(O)c1ccccc1S(=O)c1ccccc1C(C)(C)O
inactive: [13] 93 % of control | dose: 200.0 mg/kg/injection, schedule: Q01DX001 (ip), vehicle: saline with Tween-80 95 % of control | dose: 400.0 mg/kg/injection, schedule: Q01DX001 (ip), vehicle: saline with Tween-80 98 % of control

ClB1NB(Cl)NB(Cl)N1
inactive: [5] 108 % of control and 93 % of control | [6] 108 % of control and 86 % of control | dose: 400.0 mg/kg/injection, schedule: Q01DX009 (ip), vehicle: Klucel (hydroxypropylcellulose) (HPC) 109 % of control and 95 % of control

COc1ccc(C(=NO)c2ccc(OC)cc2)cc1
inactive: [14] 100 % of control | [15] 100 % of control | [16] 104 % of control

CCOC(=O)C1=C(N)C2CC(C)=C(C)CN2C1 (stereo not given)
inactive: [8] 98 % of control | [9] 100 % of control

CS(=O)(=O)OCCCCCCCCCCCC1C=CCC1 (stereo not given)
inactive: [14] 94 % of control | [15] 93 % of control | [16] 94 % of control

COC(=O)c1cc(=O)nc(N/N=C/c2cc(OC)ccc2OC)s1
inactive: [8] 95 % of control | [9] 94 % of control | [10] 95 % of control

O=c1c2ncccc2cc2n1CCc1c-2[nH]c2ccccc12
inactive: dose: 6.25 mg/kg/injection, schedule: Q01DX009 (ip), vehicle: saline with Tween-80 88 % of control | [11] 86 % of control

C=C1C(=O)OC2C=CCCCC12 (stereo not given)
inactive: dose: 50.0 mg/kg/injection, schedule: Q01DX001 (ip), vehicle: saline with Tween-80 105 % of control | [13] 102 % of control

N#CC1[C@@H](C(=O)c2ccccc2)N2C=Cc3ccccc3[C@@H]2[C@H]1C#N (stereo not given in full)
inactive: [3] 90 % of control

O=C1OCCC(O)=C1C=Nc1ccccc1
inactive: dose: 6.25 mg/kg/injection, schedule: Q01DX005 (ip), vehicle: Klucel (hydroxypropylcellulose) (HPC) 108 % of control | dose: 12.5 mg/kg/injection, schedule: Q01DX005 (ip), vehicle: Klucel (hydroxypropylcellulose) (HPC) 112 % of control | dose: 25.0 mg/kg/injection, schedule: Q01DX005 (ip), vehicle: Klucel (hydroxypropylcellulose) (HPC) 117 % of control | dose: 100.0 mg/kg/injection, schedule: Q01DX001 (ip), vehicle: Klucel (hydroxypropylcellulose) (HPC) 100 % of control | dose: 200.0 mg/kg/injection, schedule: Q01DX001 (ip), vehicle: Klucel (hydroxypropylcellulose) (HPC) 97 % of control | dose: 400.0 mg/kg/injection, schedule: Q01DX001 (ip), vehicle: Klucel (hydroxypropylcellulose) (HPC) 99 % of control

COC(=O)c1c[nH]c(=S)n1C
inactive: dose: 100.0 mg/kg/injection, schedule: Q04DX002 (ip), vehicle: saline 98 % of control | dose: 200.0 mg/kg/injection, schedule: Q04DX002 (ip), vehicle: saline 100 % of control | dose: 400.0 mg/kg/injection, schedule: Q04DX002 (ip), vehicle: saline 105 % of control

O=C1CSC(c2ccc([N+](=O)[O-])cc2[N+](=O)[O-])N1c1nncs1 (stereo not given)
inactive: [8] 95 % of control | [9] 95 % of control | [10] 95 % of control
